According to patent publication US20250281590A1, “IMMUNOGENIC COMPOSITIONS COMPRISING CONJUGATED ESCHERICHIA COLI SACCHARIDES AND USES THEREOF” (Pfizer Inc., priority 2024, published 2025):

Columns and labels:
Assay in all cases: IgG dLIA with pAb standards, NHP sera, CpG study (Example 5)
Type in all cases: in vivo, rhesus macaque
[1] = system: E. coli O-antigen serotype O1a; details: 4 valent O-antigen SCP with CpG 1800 μg; dLIA standard (pAb/mAb) not specified; listed as CpG
Experimental: (§1) The 4-plex O-antigen IgG dLIA serology assay was completed as follows: The primate serology assay utilized the same O-antigen MagPlex®-C microspheres (Luminex) as the mouse serology assay described in Example 3, above. Microspheres were incubated with serially diluted NHP serum samples, controls, and human polyclonal serum standards overnight at 2-8° C. while shaking. In this case, bound serotype-specific IgG was detected with PE-conjugated goat anti-human IgG. Fcγ fragment-specific secondary antibody (Jackson Laboratories) and fluorescence was measured on the FlexMap 3D instrument ([…]). Human serum containing IgG to all four O-antigens was used as an internal standard for interpolating NHP serum IgG concentrations. […] Lower limit of quantification (LLOQ) was defined as 2 U/mL.
(§2) In this study, the adjuvanting effect of nucleotide adjuvant CpG 24555 on immunogenicity of E. coli O-antigen SCP glycoconjugates of serotypes O1a, O2, O6, and O25b was assessed in a NHP (Rhesus Macaques) model.
(§3) 20 male rhesus macaques were selected for this study. Three groups of Rhesus macaques were vaccinated with the 4 valent O-antigen SCP glycoconjugates including one group without CpG adjuvant, one group with CpG adjuvant and a lower dose of the 4 valent O-antigen SCP glycoconjugates, and one group with CpG adjuvant and a higher dose of 4 valent O-antigen SCP glycoconjugates. The no adjuvant control group, as well as the group with CpG adjuvant and the higher dose of glycoconjugates included 2 μg of serotypes O1a, O2, and O6, as well as 4 μg of serotype O25b. The group with CpG adjuvant and the lower dose of glycoconjugates included 0.5 μg of serotypes O1a, O2, and O6, as well as 1 μg of serotype O25b. Vaccination was administered at months 0, 2, and 6. Animals were bled prior to vaccination and at weeks 1, 2, 4, 6, 9, 10, 12, 25, and 26. 0.5 mL of vaccine formulation was injected intramuscularly (IM).
(§4) Geometric mean titers (GMTs) of IgG antibodies specific for each of the respective 0-antigen serotypes O1a, O2, O6, and O25b were quantified using a Luminex 4-plex dLIA assay. The 4-plex O-antigen IgG dLIA serology assay was completed as described in Example 4, above. Table 21 and 22, below, present data for IgG GMT titers for each of serotypes O1a, O2, O6, and O25b.

[2] = system: E. coli O-antigen serotype O25b; details: 4 valent O-antigen SCP with CpG 1800 μg; after each vaccination; dLIA standard (pAb/mAb) not specified; listed as CpG
Experimental: as §1, §2, §3, §4

[3] = system: E. coli O-antigen serotype O2; details: 4 valent O-antigen SCP with CpG 1800 μg, dLIA standard (pAb/mAb) not specified
Experimental: as §1, §2, §3, §4

[4] = system: E. coli O-antigen serotype O6; details: 4 valent O-antigen SCP with CpG 1800 μg, dLIA standard (pAb/mAb) not specified
Experimental: as §1, §2, §3, §4

**Q.** Which results are given for CpG 24555 [CpG adjuvant]?
**A.** Serotype O1a IgG titers, fold increase vs. unadjuvanted titers [1]: greater than twenty-fold increases; Serotype O25b IgG titers, fold increase vs. unadjuvanted titers [2]: greater than twenty-fold increases; Serotype O2 IgG titers, fold increase vs. unadjuvanted titers [3]: less than 10 fold; Serotype O2 IgG titers, fold increase vs. unadjuvanted titers ([3]; listed as CpG): up to ten-fold increases; Serotype O6 IgG titers, fold increase vs. unadjuvanted titers [4]: less than 10 fold; Serotype O6 IgG titers, fold increase vs. unadjuvanted titers ([4]; listed as CpG): up to ten-fold increases
